{"source": "patent US6960614B2", "about": "“Oxygenated esters of 4-lodo phenylamino benzhydroxamic acids” (Warner-Lambert Company, priority 2000, dated 2005)", "system": "MEK", "assay": "Cellular Assay for Measuring MEK Inhibition (inhibition of ERK phosphorylation in C26 cells, Western blot)", "assay_type": "cell-based, murine", "details": "for IC50: inhibition of ERK phosphorylation in murine colon 26 (C26) carcinoma cells, determined graphically from dose response curve; for % Inhibition @ 0.1 μM / % Inhibition @ 1 μM / % Inhibition @ 10 μM: ERK phosphorylation in C26 cells", "procedure,_shortened": "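Read-out is phospho-ERK1/2 by Western blot, normalized against total ERK1/2 after stripping and re-probing. Murine C26 colon carcinoma cells in exponential growth were exposed to a range of compound concentrations at 37° C before lysis.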", "data": [{"smiles": "O=C(NOCC(O)COc1ccccc1)c1cc(F)c(F)cc1Nc1ccc(I)cc1F", "note": "(stereo not shown) [Example 193, 4,5-Difluoro-2-(2-fluoro-4-iodo-phenylamino)-N-(2-hydroxy-3-phenoxy-propoxy)-benzamide]", "values": [{"measurement": "IC50", "result": 10, "unit": "nM"}]}, {"smiles": "O=C(NOCC(O)COc1ccccc1)c1cc(Cl)c(F)c(F)c1Nc1ccc(F)cc1F", "note": "(stereo not shown) [Example 194, 5-Chloro-2-(2,4-difluoro-phenylamino)-3,4-difluoro-N-(2-hydroxy-3-phenoxy-propoxy)-benzamide]", "values": [{"measurement": "% Inhibition @ 0.1 μM", "result": 0, "unit": "%"}, {"measurement": "% Inhibition @ 1 μM", "result": 0, "unit": "%"}]}, {"smiles": "O=C(NOCC(O)COc1ccccc1)c1ccc(F)c(F)c1Nc1ccc(F)cc1F", "note": "(stereo not shown) [Example 195, 2-(2,4-Difluoro-phenylamino)-3,4-difluoro-N-(2-hydroxy-3-phenoxy-propoxy)-benzamide]", "values": [{"measurement": "% Inhibition @ 1 μM", "result": 26.7, "unit": "%"}, {"measurement": "% Inhibition @ 10 μM", "result": 82.6, "unit": "%"}]}, {"smiles": "O=C(NOCC(O)COc1ccccc1)c1ccc(F)c(F)c1Nc1ccc(Cl)cc1F", "note": "(stereo not shown) [Example 196, 2-(4-Chloro-2-fluoro-phenylamino)-3,4-difluoro-N-(2-hydroxy-3-phenoxy-propoxy)-benzamide]", "values": [{"measurement": "% Inhibition @ 0.1 μM", "result": 10.2, "unit": "%"}, {"measurement": "% Inhibition @ 1 μM", "result": 82.8, "unit": "%"}]}, {"smiles": "Cc1cc(I)ccc1Nc1c(C(=O)NOCC(C)(C)CO)ccc(F)c1F", "note": "[Example 197, 3,4-Difluoro-N-(3-hydroxy-2,2-dimethyl-propoxy)-2-(4-iodo-2-methyl-phenylamino)-benzamide]", "values": [{"measurement": "IC50", "result": 51, "unit": "nM"}]}, {"smiles": "CC(C)(CO)CONC(=O)c1cc(F)c(F)c(F)c1Nc1ccc(I)cc1Cl", "note": "[Example 198, 2-(2-Chloro-4-iodo-phenylamino)-3,4,5-trifluoro-N-(3-hydroxy-2,2-dimethyl-propoxy)-benzamide]", "values": [{"measurement": "% Inhibition @ 0.1 μM", "result": 0, "unit": "%"}, {"measurement": "% Inhibition @ 1 μM", "result": 43.5, "unit": "%"}]}, {"smiles": "Cc1cc(I)ccc1Nc1c(C(=O)NOCC(C)(C)CO)cc(F)c(F)c1F", "note": "[Example 199, 3,4,5-Trifluoro-N-(3-hydroxy-2,2-dimethyl-propoxy)-2-(4-iodo-2-methyl-phenylamino)-benzamide]", "values": [{"measurement": "IC50", "result": 100, "unit": "nM"}]}, {"smiles": "CC(C)(CO)CONC(=O)c1cc(Cl)c(F)c(F)c1Nc1ccc(I)cc1Cl", "note": "[Example 200, 5-Chloro-2-(2-chloro-4-iodo-phenylamino)-3,4-difluoro-N-(3-hydroxy-2,2-dimethyl-propoxy)-benzamide]", "values": [{"measurement": "IC50", "result": 300, "unit": "nM"}]}, {"smiles": "Cc1cc(I)ccc1Nc1c(C(=O)NOCC(C)(C)CO)cc(Cl)c(F)c1F", "note": "[Example 201, 5-Chloro-3,4-difluoro-N-(3-hydroxy-2,2-dimethyl-propoxy)-2-(4-iodo-2-methyl-phenylamino)-benzamide]", "values": [{"measurement": "IC50", "result": 100, "unit": "nM"}]}, {"smiles": "CC(C)(CO)CONC(=O)c1ccc(F)c(F)c1Nc1ccc(I)cc1F", "note": "[Example 202, 3,4-Difluoro-2-(2-fluoro-4-iodo-phenylamino)-N-(3-hydroxy-2,2-dimethyl-propoxy)-benzamide]", "values": [{"measurement": "% Inhibition @ 0.1 μM", "result": 59.7, "unit": "%"}, {"measurement": "% Inhibition @ 1 μM", "result": 94.6, "unit": "%"}]}, {"smiles": "CC(C)(CO)CONC(=O)c1cc(Cl)c(F)c(F)c1Nc1ccc(F)cc1F", "note": "[Example 203, 5-Chloro-2-(2,4-difluoro-phenylamino)-3,4-difluoro-N-(3-hydroxy-2,2-dimethyl-propoxy)-benzamide]", "values": [{"measurement": "% Inhibition @ 1 μM", "result": 0, "unit": "%"}, {"measurement": "% Inhibition @ 10 μM", "result": 37.4, "unit": "%"}]}, {"smiles": "COCCOCCONC(=O)c1cc(Br)c(F)c(F)c1Nc1ccc(I)cc1C", "note": "[Example 206, 5-Bromo-3,4-difluoro-2-(4-iodo-2-methyl-phenylamino)-N-[2-(2-methoxy-ethoxy)-ethoxy]-benzamide]", "values": [{"measurement": "IC50", "result": 140, "unit": "nM"}]}, {"smiles": "COCCOCCONC(=O)c1ccc(F)c(F)c1Nc1ccc(I)cc1Cl", "note": "[Example 207, 2-(2-Chloro-4-iodo-phenylamino)-3,4-difluoro-N-[2-(2-methoxy-ethoxy)-ethoxy]-benzamide]", "values": [{"measurement": "IC50", "result": 212, "unit": "nM"}]}, {"smiles": "COCCOCCONC(=O)c1cc(F)c(F)c(F)c1Nc1ccc(I)cc1Cl", "note": "[Example 208, 2-(2-Chloro-4-iodo-phenylamino)-3,4,5-trifluoro-N-[2-(2-methoxy-ethoxy)-ethoxy]-benzamide]", "values": [{"measurement": "IC50", "result": 1030, "unit": "nM"}]}, {"smiles": "O=C(NOCC(O)C(F)(F)F)c1cc(F)c(F)c(F)c1Nc1ccc(I)cc1F", "note": "(stereo not shown) [Example 210, 3,4,5-Trifluoro-2-(2-fluoro-4-iodo-phenylamino)-N-(3,3,3-trifluoro-2-hydroxy-propoxy)-benzamide]", "values": [{"measurement": "% Inhibition @ 0.1 μM", "result": 79.7, "unit": "%"}, {"measurement": "% Inhibition @ 1 μM", "result": 99.2, "unit": "%"}]}, {"smiles": "O=C(NOCC(O)C(F)(F)F)c1cc(Cl)c(F)c(F)c1Nc1ccc(F)cc1F", "note": "(stereo not shown) [Example 211, 5-Chloro-2-(2,4-difluoro-phenylamino)-3,4-difluoro-N-(3,3,3-trifluoro-2-hydroxy-propoxy)-benzamide]", "values": [{"measurement": "% Inhibition @ 1 μM", "result": 35, "unit": "%"}, {"measurement": "% Inhibition @ 10 μM", "result": 71.9, "unit": "%"}]}, {"smiles": "O=C(NOCC(O)C(F)(F)F)c1ccc(F)c(F)c1Nc1ccc(F)cc1F", "note": "(stereo not shown) [Example 212, 2-(2,4-Difluoro-phenylamino)-3,4-difluoro-N-(3,3,3-trifluoro-2-hydroxy-propoxy)-benzamide]", "values": [{"measurement": "% Inhibition @ 1 μM", "result": 20.1, "unit": "%"}, {"measurement": "% Inhibition @ 10 μM", "result": 85.1, "unit": "%"}]}, {"smiles": "O=C(NOCC(O)C(F)(F)F)c1ccc(F)c(F)c1Nc1ccc(Cl)cc1F", "note": "(stereo not shown) [Example 213, 2-(4-Chloro-2-fluoro-phenylamino)-3,4-difluoro-N-(3,3,3-trifluoro-2-hydroxy-propoxy)-benzamide]", "values": [{"measurement": "% Inhibition @ 0.1 μM", "result": 6.2, "unit": "%"}, {"measurement": "% Inhibition @ 1 μM", "result": 78.7, "unit": "%"}]}, {"smiles": "O=C(NOCC1CC1CO)c1cc(Cl)c(F)c(F)c1Nc1ccc(F)cc1F", "note": "(stereo not shown) [Example 214, 5-Chloro-2-(2,4-difluoro-phenylamino)-3,4-difluoro-N-(2-hydroxymethyl-cyclopropylmethoxy)-benzamide]", "values": [{"measurement": "% Inhibition @ 1 μM", "result": 15.4, "unit": "%"}, {"measurement": "% Inhibition @ 10 μM", "result": 38.2, "unit": "%"}]}, {"smiles": "O=C(NOCC1CC1CO)c1ccc(F)c(F)c1Nc1ccc(F)cc1F", "note": "(stereo not shown) [Example 215, 2-(2,4-Difluoro-phenylamino)-3,4-difluoro-N-(2-hydroxymethyl-cyclopropylmethoxy)-benzamide]", "values": [{"measurement": "% Inhibition @ 1 μM", "result": 11.7, "unit": "%"}, {"measurement": "% Inhibition @ 10 μM", "result": 84.8, "unit": "%"}]}, {"smiles": "O=C(NOCC1CC1CO)c1ccc(F)c(F)c1Nc1ccc(Cl)cc1F", "note": "(stereo not shown) [Example 216, 2-(4-Chloro-2-fluoro-phenylamino)-3,4-difluoro-N-(2-hydroxymethyl-cyclopropylmethoxy)-benzamide]", "values": [{"measurement": "% Inhibition @ 0.1 μM", "result": 41.2, "unit": "%"}, {"measurement": "% Inhibition @ 1 μM", "result": 87.6, "unit": "%"}]}, {"smiles": "O=C(NOCC1CC1CO)c1cc(F)c(F)cc1Nc1ccc(I)cc1F", "note": "(stereo not shown) [Example 217, 4,5-Difluoro-2-(2-fluoro-4-iodo-phenylamino)-N-(2-hydroxymethyl-cyclopropylmethoxy)-benzamide]", "values": [{"measurement": "% Inhibition @ 0.1 μM", "result": 26.9, "unit": "%"}, {"measurement": "% Inhibition @ 1 μM", "result": 93.1, "unit": "%"}]}, {"smiles": "O=C(NOCC1(CO)CC1)c1ccc(F)c(F)c1Nc1ccc(I)cc1F", "note": "[Example 218, 3,4-Difluoro-2-(2-fluoro-4-iodo-phenylamino)-N-(1-hydroxymethyl-cyclopropylmethoxy)-benzamide]", "values": [{"measurement": "% Inhibition @ 0.1 μM", "result": 87, "unit": "%"}, {"measurement": "% Inhibition @ 1 μM", "result": 96.9, "unit": "%"}]}, {"smiles": "O=C(NOCC1(CO)CC1)c1cc(F)c(F)c(F)c1Nc1ccc(I)cc1F", "note": "[Example 219, 3,4,5-Trifluoro-2-(2-fluoro-4-iodo-phenylamino)-N-(1-hydroxymethyl-cyclopropylmethoxy)-benzamide]", "values": [{"measurement": "% Inhibition @ 0.1 μM", "result": 65.3, "unit": "%"}, {"measurement": "% Inhibition @ 1 μM", "result": 96.2, "unit": "%"}]}, {"smiles": "O=C(NOCC1(CO)CC1)c1cc(Br)c(F)c(F)c1Nc1ccc(I)cc1F", "note": "[Example 220, 5-Bromo-3,4-difluoro-2-(2-fluoro-4-iodo-phenylamino)-N-(1-hydroxymethyl-cyclopropylmethoxy)-benzamide]", "values": [{"measurement": "% Inhibition @ 0.1 μM", "result": 35.4, "unit": "%"}, {"measurement": "% Inhibition @ 1 μM", "result": 88.8, "unit": "%"}]}, {"smiles": "O=C(NOCC1(CO)CC1)c1cc(F)c(F)cc1Nc1ccc(I)cc1F", "note": "[Example 221, 4,5-Difluoro-2-(2-fluoro-4-iodo-phenylamino)-N-(1-hydroxymethyl-cyclopropylmethoxy)-benzamide]", "values": [{"measurement": "% Inhibition @ 0.1 μM", "result": 46, "unit": "%"}, {"measurement": "% Inhibition @ 1 μM", "result": 92.4, "unit": "%"}]}, {"smiles": "O=C(NOCC1(CO)CC1)c1ccc(F)c(F)c1Nc1ccc(F)cc1F", "note": "[Example 222, 2-(2,4-Difluoro-phenylamino)-3,4-difluoro-N-(1-hydroxymethyl-cyclopropylmethoxy)-benzamide]", "values": [{"measurement": "% Inhibition @ 1 μM", "result": 9.6, "unit": "%"}, {"measurement": "% Inhibition @ 10 μM", "result": 55.6, "unit": "%"}]}, {"smiles": "O=C(NOCC1(CO)CC1)c1ccc(F)c(F)c1Nc1ccc(Br)cc1F", "note": "[Example 223, 2-(4-Bromo-2-fluoro-phenylamino)-3,4-difluoro-N-(1-hydroxymethyl-cyclopropylmethoxy)-benzamide]", "values": [{"measurement": "% Inhibition @ 0.1 μM", "result": 5.2, "unit": "%"}, {"measurement": "% Inhibition @ 1 μM", "result": 56.7, "unit": "%"}]}, {"smiles": "O=C(NOCC1(CO)CC1)c1ccc(F)c(F)c1Nc1ccc(Cl)cc1F", "note": "[Example 224, 2-(4-Chloro-2-fluoro-phenylamino)-3,4-difluoro-N-(1-hydroxymethyl-cyclopropylmethoxy)-benzamide]", "values": [{"measurement": "% Inhibition @ 0.1 μM", "result": 0, "unit": "%"}, {"measurement": "% Inhibition @ 1 μM", "result": 18.1, "unit": "%"}]}, {"smiles": "O=C(NOCC1(CO)CC1)c1cc(Cl)c(F)c(F)c1Nc1ccc(F)cc1F", "note": "[Example 225, 5-Chloro-2-(2,4-difluoro-phenylamino)-3,4-difluoro-N-(1-hydroxymethyl-cyclopropylmethoxy)-benzamide]", "values": [{"measurement": "% Inhibition @ 0.1 μM", "result": 0, "unit": "%"}, {"measurement": "% Inhibition @ 1 μM", "result": 8.7, "unit": "%"}, {"measurement": "% Inhibition @ 10 μM", "result": 36.9, "unit": "%"}]}, {"smiles": "COCC(O)CONC(=O)c1ccc(F)c(F)c1Nc1ccc(F)cc1F", "note": "(stereo not shown) [Example 226, 2-(2,4-Difluoro-phenylamino)-3,4-difluoro-N-(2-hydroxy-3-methoxy-propoxy)-benzamide]", "values": [{"measurement": "% Inhibition @ 1 μM", "result": 41.5, "unit": "%"}, {"measurement": "% Inhibition @ 10 μM", "result": 84.1, "unit": "%"}]}, {"smiles": "COCC(O)CONC(=O)c1cc(Cl)c(F)c(F)c1Nc1ccc(F)cc1F", "note": "(stereo not shown) [Example 227, 5-Chloro-2-(2,4-difluoro-phenylamino)-3,4-difluoro-N-(2-hydroxy-3-methoxy-propoxy)-benzamide]", "values": [{"measurement": "% Inhibition @ 1 μM", "result": 24.2, "unit": "%"}, {"measurement": "% Inhibition @ 10 μM", "result": 63, "unit": "%"}]}, {"smiles": "COCC(O)CONC(=O)c1ccc(F)c(F)c1Nc1ccc(Br)cc1F", "note": "(stereo not shown) [Example 228, 2-(4-Bromo-2-fluoro-phenylamino)-3,4-difluoro-N-(2-hydroxy-3-methoxy-propoxy)-benzamide]", "values": [{"measurement": "% Inhibition @ 0.1 μM", "result": 48.6, "unit": "%"}, {"measurement": "% Inhibition @ 1 μM", "result": 92.4, "unit": "%"}]}, {"smiles": "COCC(O)CONC(=O)c1ccc(F)c(F)c1Nc1ccc(Cl)cc1F", "note": "(stereo not shown) [Example 229, 2-(4-Chloro-2-fluoro-phenylamino)-3,4-difluoro-N-(2-hydroxy-3-methoxy-propoxy)-benzamide]", "values": [{"measurement": "% Inhibition @ 0.1 μM", "result": 9.8, "unit": "%"}, {"measurement": "% Inhibition @ 1 μM", "result": 76.5, "unit": "%"}]}]}
